Results published in the NIST ThermoML archive (doi:10.1007/s10765-006-0088-4).
Numbers after ± are expanded uncertainties.

Conditions: Liquid; for vapor or sublimation pressure: Closed cell (Static) method

CCC [propane]
Conditions	vapor or sublimation pressure [kPa]
280 K	583.1 ± 1.2
300 K	999 ± 2.1
320 K	1599.8 ± 3.3
340 K	2432.2 ± 5
360 K	3556.3 ± 7.2
365 K	3894.1 ± 7.9
367 K	4036.8 ± 8.2
369 K	4184.4 ± 8.5

mass density [kg/m3]
Conditions	340 K	360 K	380 K	400 K
3000 kPa, Vibrating tube method	418.08 ± 0.51	–	–	–
5000 kPa, Vibrating tube method	433.15 ± 0.54	380.52 ± 0.48	–	–
10000 kPa, Buoyancy - hydrostatic balance with magnetic suspension - two sinkers	457.22 ± 0.51	423.91 ± 0.47	383.94 ± 0.42	334.82 ± 0.37
20000 kPa, Buoyancy - hydrostatic balance with magnetic suspension - one sinker	486.49 ± 0.54	463.18 ± 0.52	438.11 ± 0.49	412.17 ± 0.46
30000 kPa, Buoyancy - hydrostatic balance with magnetic suspension - one sinker	506.41 ± 0.56	486.97 ± 0.55	466.65 ± 0.53	446.42 ± 0.51
40000 kPa, Bellows volumetry	521.92 ± 0.58	504.75 ± 0.56	486.9 ± 0.54	469.52 ± 0.52
50000 kPa, Bellows volumetry	534.58 ± 0.6	519.13 ± 0.59	502.92 ± 0.57	487.17 ± 0.56
60000 kPa, Bellows volumetry	545.76 ± 0.61	531.24 ± 0.6	516.27 ± 0.59	501.88 ± 0.58
70000 kPa, Bellows volumetry	555.4 ± 0.62	541.74 ± 0.61	527.68 ± 0.6	514.4 ± 0.59
80000 kPa, Bellows volumetry	564.13 ± 0.63	551.28 ± 0.62	537.77 ± 0.61	525.29 ± 0.6
90000 kPa, Bellows volumetry	571.96 ± 0.64	559.54 ± 0.63	546.83 ± 0.62	534.99 ± 0.61
100000 kPa, Bellows volumetry	579.21 ± 0.65	567.52 ± 0.64	555.08 ± 0.63	543.68 ± 0.62
120000 kPa, Bellows volumetry	592 ± 0.67	581.13 ± 0.66	569.69 ± 0.65	559.13 ± 0.64
140000 kPa, Bellows volumetry	603.23 ± 0.68	593.24 ± 0.67	582.4 ± 0.66	572.43 ± 0.65
160000 kPa, Bellows volumetry	613.42 ± 0.74	603.94 ± 0.74	593.57 ± 0.74	584.27 ± 0.74
180000 kPa, Bellows volumetry	622.47 ± 0.76	613.6 ± 0.75	603.76 ± 0.75	594.86 ± 0.75
200000 kPa, Bellows volumetry	631.34 ± 0.78	622.28 ± 0.76	612.75 ± 0.77	604.47 ± 0.77
